Patent publication US20120258938A1, “Enzymatic Production or Chemical Synthesis and Uses for 5,7-Dienes and UVB Conversion Products Thereof” (priority 2008, published 2012)
Each block holds one molecule with its values, some of them ahead of it.

Assays:
[1] = system: CYP27A1; assay: Real-time RT PCR CYP27A1 mRNA, normal epidermal keratinocytes; format: cell-based, human; details: 10^−8 M
Procedure: RNA was extracted using an Absolutely RNA RT-PCR Miniprep Kit (Stratagene, La Jolla, Calif.). Real time PCR and reverse transcription products were purchased from Applied Biosystems, Foster City, Calif. Reverse transcription was performed using Taqman® Reverse Transcription Reagents. The following PCR products were used: cytokeratin 14: Hs00265033_m1, involucrin: Hs00846307_s1, CYP27A1: Hs00168003_ml, CYP27B1: Hs00168017_ml, 18SrRNA: Hs99999901_s1. The reaction was performed with Taqman® Universal PCR Master Mix; data were collected on an ABI Prism 7700 and analyzed on Sequence Detector 1.9.1. Specific gene amounts were related to 18SrRNA by comparative CT method.

[2] = system: CYP24 promoter; assay: CYP24-Luc reporter in normal epidermal keratinocytes; format: cell-based, human; details: 24 h
Description: The CYP24-Luc construct was a generous gift from Dr Tai Cheng (Boston University Medical Campus, Core Lab Director). It was originally developed by Vaisanen et al. (27). The details of the pLuc construct have been described previously (28-29). Normal epidermal keratinocytes were transfected using Lipofectamine Plus (Invitrogen, Carlsbad, Calif.) in Epilife medium with firefly luciferase reporter gene plasmid and with phRL-TK (expresses Renilla luciferase and serves as normalization control; Promega, Madison, Wis.). After transfection, cells were incubated for 24 hours in EpiLife medium with HKGS. Cells were then transferred to fresh media containing the compounds to be tested or vehicle (ethanol) and incubated for 24 hours. The firefly luciferase and Renilla luciferase signals were recorded with a TD-20/20 luminometer (Turner Designs, Sunnyvale, Calif.); background luminescence was subtracted and the resulting promoter-specific firefly signal was divided by the Renilla signal (proportional to the number of transfected cells). The values obtained were divided by the mean of control (untreated) cells.

[3] = system: CYP24; assay: Real-time RT PCR CYP24 mRNA, normal epidermal keratinocytes; format: cell-based, human
Procedure: RNA was extracted as above. Reverse transcription was performed with Transcriptor First Strand cDNA Synthesis Kit (Roche, Nutley, N.J.). The primers (right: 5′-GCA GCT CGA CTG GAG TGA C-3′ (SEQ ID NO: 1) and left: 5′-CATCATGGCCATCAAAACAAT-3′(SEQ ID NO: 2)) and probe (cat. no. 04689135001) were designed with Universal Probe Library (Roche, Nutley, N.J.). Real-time PCR was performed using TaqMan PCR Master Mix at 50° C. for 2 min, 95° C. for 10 min and then 50 cycles (95° C. for 15 sec, 60° C. for 1 min). The data was collected on a Roche Light Cycler 480. The amounts of CYP24 were normalized using cyclophilin D as a housekeeping gene with comparative CT method.

[4] = system: human prostate carcinoma cell line PC-3; assay: Proliferation of PC-3 prostate carcinoma cells; format: cell-based; details: PC-3, 72 h
Procedure: Cells were seeded in 96-well plate and incubated with 20-hydroxycholecalciferol in DMEM medium containing 5% FBS for 48 h (FIG. 25A) or 72 h (FIG. 25C) or for 24 h after a 12 h synchronization in serum free medium (FIG. 25D). […] was added for a final 18 h (FIGS. 25A, 25D) or 12 h (FIG. 25C) of incubation or cells were assessed with sulforhodamine assay (FIG. 25C). Data is shown as mean±SEM (n=5; FIG. 24C) or mean±SEM (n=6; FIGS. 24A, 24C, 24D) and was analyzed using GraphPrism 4.0.

[5] = system: PC-3; assay: Flow cytometry cell cycle and subG1, PC-3; format: cell-based, human; details: PC-3, 24 h
Procedure: MD-MBA-231, MG-63, PC-3, and WM164 cells were seeded into Petri dishes and then incubated for 24 h with 20-hydroxycholecalciferol in DMEM medium containing 5% FBS. Then cells were fixed, DNA stained and samples read with flow cytometer as described (7). Data was analyzed with Cell Quest (BD Biosciences). Cell cycle phases were assessed in viable cell populations and subG1 contents were calculated within whole cell population.

[6] = system: SK Mel 188 human melanoma cells; assay: Soft agar colony formation, SKMEL 188 melanoma; format: cell-based
Procedure: Growth and survival of prostate cancer cells (PC3) and melanoma cells SKMEL 188 and AbC1 was determined by following their ability to form colonies in soft agar. Cells growing in monolayer culture were trypsinized and resuspended (1,000 cells/well) in 0.25 ml medium containing 0.4% agarose and 5% charcoal stripped serum (HyClone).
Cell suspensions were added to 0.8% agar layer in 24 well plates. […] Each condition was tested in quadruplicate. An ethanol solvent control (amount of ethanol equivalent to test) as well as a media-only control was included in the assay. Cells were allowed to grow at 37° with 5% CO2 over two weeks with secosteroids in fresh media (100 μL) being added after every 72 h. Soft agar colonies were scored and stained with 0.5 mg/ml MTT reagent (Promega), 500 μL/well after two weeks. Colonies were then counted under the microscope and number of units was calculated as number of colonies formed divided by the number of cells seeded×100.

[7] = system: NFκB; assay: Electrophoretic mobility shift assay for NF-κB activation; format: cell-based, human; details: HaCaT nuclear extracts, 10^−7 M
Description: Electrophoretic mobility shift assay (EMSA) was done using the Odyssey Infrared Imaging System (LI-COR, Inc., Lincoln, Nebr.). The synthetic IRDye-labeled oligonucleotide (LI-COR) used for the DNA mobility shift assay contained the wild-type VDRE sequence sp1 promoter and part of INVOLUCRIN sequence contained the sequence: 5′-GCGGGAGGCAGATCTGGCAGATACTGA-3′ (SEQ ID NO: 3). Oligo was end labeled with infrared dye 700. Unlabeled oligo contained the same sequence. The DNA binding reaction was set up using 2.5 μg of the nuclear extract mixed with oligonucleotide and gel shift binding buffer consisting of: 2.5 mmol/L DTT, 0.25% Tween-20 and 0.25 mg/ml poly(dl):poly(dC) according to the LI-COR protocol. The reaction was incubated at room temperature in the dark for 30 minutes. For NF-κB activation p65 antibody was added to the 1 sample and incubated for the 30 min. Orange loading dye (2 μl of 10×) was added to each sample and loaded on the prerun 5% polyacrylamide gel and ran at 80V for 1 hour. The gel was scanned using Odyssey Infrared Imaging System.
HaCaT keratinocytes were treated with 20,23-dihydroxycholecalciferol for indicated time: 0 h, 30 min, 1 h, 4 h, 16 h and 24 h, at the concentration of 10^−7 [M]. […]

Compound: C=C1/C(=C\C=C2/CCC[C@]3(C)[C@@H]([C@H](C)CCCC(C)(C)O)CC[C@@H]23)C[C@@H](O)C[C@@H]1O [1α,25-dihydroxycholecalciferol, (5Z,7E)-9,10-secocholesta-5,7,10(19)-triene-1α,3β,25-triol, reference compound]
inhibition of CYP27A1 expression ([1]; 24 h): ~2.9 fold
stimulation of transcriptional activity of the CYP24 promoter [2]: ~21 fold

EC50 [4]: 570 nM
Compound: C=C1CC[C@H](O)C/C1=C/C=C1\CCC[C@@]2(C)[C@H]1CC[C@@H]2[C@@](C)(O)CCCC(C)C [20(OH)D3, (5Z,7E)-9,10-secocholesta-5,7,10(19)-triene-3β,20-diol]
inhibition of CYP27A1 expression ([1]; 24 h): ~3.5 fold
inhibition of CYP27A1 expression ([1]; 48 h): ~2.6 fold
stimulation of transcriptional activity of the CYP24 promoter [2]: ~2.5 fold
increase of CYP24 mRNA levels ([3]; 10 nM, 24 h): 1.3 fold
stimulation of CYP24 mRNA ([3]; 10^−6, 24 h): ~247 fold
G0/G1 of viable cells [5]: 24%
G2/M of viable cells [5]: 0
S of viable cells [5]: 76%
Viable Cells [5]: 4
subG1 ([5]; whole cell population): 96

NFκB DNA-binding activity (EMSA) [7]: inhibited the NFκB binding activity
Compound: C=C1CC[C@H](O)C/C1=C/C=C1\CCC[C@]2(C)[C@@H](C(C)(O)CC(O)CC(C)C)CC[C@@H]12 (stereo partly drawn) [20,23-dihydroxycholecalciferol, (5Z,7E)-9,10-secocholesta-5,7,10(19)-triene-3β,20,23-triol]
less colonies bigger than 0.5 mm ([6]; Sk Mel 188, 0.1 nM and 100 nM): approximately 50%

Compound: C=C1CC[C@H](O)C/C1=C/C=C1\CCC[C@]2(C)[C@@H](C(C)=O)CC[C@@H]12 [pD3, (5Z,7E)-3β-hydroxy-9,10-secopregna-5,7,10(19)-trien-20-one]
colony formation on soft agar ([6]; SKMEL-188, dose dependent): suppress colony formation on soft agar
